Columns and labels:
[1] = target: Ribosomal protein S6 kinase alpha-4 (Homo sapiens) (UniProt O75676); assay: Selectivity interaction (KinomeScan (DiscoverX)) EUB0001049a RPS6KA4; conditions: at 1 µM
[2] = target: T1, Inhibitor of nuclear factor kappa-B kinase subunit beta (Homo sapiens) (UniProt O14920); assay: Selectivity interaction (ActivX KiNativ screen (kinase selectivity in THP-1 cell lysates)) EUB0000639a IKBKB; type: subcellular; conditions: lysate, at 5 µM
T1 sequence (whole entry): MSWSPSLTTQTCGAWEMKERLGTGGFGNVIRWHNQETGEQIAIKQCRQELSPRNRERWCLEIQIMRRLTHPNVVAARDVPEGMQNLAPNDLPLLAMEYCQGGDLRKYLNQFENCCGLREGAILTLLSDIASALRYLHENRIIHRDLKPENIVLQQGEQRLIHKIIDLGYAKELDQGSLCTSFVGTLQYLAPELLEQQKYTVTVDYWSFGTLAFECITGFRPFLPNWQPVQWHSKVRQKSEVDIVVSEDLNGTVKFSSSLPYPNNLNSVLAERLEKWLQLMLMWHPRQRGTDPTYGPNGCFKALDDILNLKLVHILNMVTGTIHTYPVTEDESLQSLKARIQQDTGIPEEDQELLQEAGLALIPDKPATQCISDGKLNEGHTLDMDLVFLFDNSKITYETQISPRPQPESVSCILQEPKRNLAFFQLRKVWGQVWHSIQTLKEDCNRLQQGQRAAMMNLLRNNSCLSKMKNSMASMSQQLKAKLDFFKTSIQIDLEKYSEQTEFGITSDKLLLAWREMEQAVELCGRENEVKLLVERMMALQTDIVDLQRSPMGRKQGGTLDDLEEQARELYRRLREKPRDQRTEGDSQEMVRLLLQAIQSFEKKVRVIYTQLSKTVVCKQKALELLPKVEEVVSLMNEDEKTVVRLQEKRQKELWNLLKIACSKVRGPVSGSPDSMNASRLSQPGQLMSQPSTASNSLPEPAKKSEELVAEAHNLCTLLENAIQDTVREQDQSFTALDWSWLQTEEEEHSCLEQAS

[3] = target: Serine/threonine-protein kinase 10 (Homo sapiens) (UniProt O94804); assay: Selectivity interaction (KinomeScan (DiscoverX)) EUB0000695a STK10; conditions: at 100 nM
[4] = target: Tyrosine-protein kinase receptor UFO (Homo sapiens) (UniProt P30530); assay: Selectivity interaction (KinomeScan (DiscoverX)) EUB0000607a AXL; conditions: at 10 µM
[5] = target: T2, Serine/threonine-protein kinase LATS2 (Homo sapiens) (UniProt Q9NRM7); assay: Selectivity interaction (KinomeScan (DiscoverX)) EUB0000607a LATS2; conditions: at 10 µM
T2 sequence (whole entry): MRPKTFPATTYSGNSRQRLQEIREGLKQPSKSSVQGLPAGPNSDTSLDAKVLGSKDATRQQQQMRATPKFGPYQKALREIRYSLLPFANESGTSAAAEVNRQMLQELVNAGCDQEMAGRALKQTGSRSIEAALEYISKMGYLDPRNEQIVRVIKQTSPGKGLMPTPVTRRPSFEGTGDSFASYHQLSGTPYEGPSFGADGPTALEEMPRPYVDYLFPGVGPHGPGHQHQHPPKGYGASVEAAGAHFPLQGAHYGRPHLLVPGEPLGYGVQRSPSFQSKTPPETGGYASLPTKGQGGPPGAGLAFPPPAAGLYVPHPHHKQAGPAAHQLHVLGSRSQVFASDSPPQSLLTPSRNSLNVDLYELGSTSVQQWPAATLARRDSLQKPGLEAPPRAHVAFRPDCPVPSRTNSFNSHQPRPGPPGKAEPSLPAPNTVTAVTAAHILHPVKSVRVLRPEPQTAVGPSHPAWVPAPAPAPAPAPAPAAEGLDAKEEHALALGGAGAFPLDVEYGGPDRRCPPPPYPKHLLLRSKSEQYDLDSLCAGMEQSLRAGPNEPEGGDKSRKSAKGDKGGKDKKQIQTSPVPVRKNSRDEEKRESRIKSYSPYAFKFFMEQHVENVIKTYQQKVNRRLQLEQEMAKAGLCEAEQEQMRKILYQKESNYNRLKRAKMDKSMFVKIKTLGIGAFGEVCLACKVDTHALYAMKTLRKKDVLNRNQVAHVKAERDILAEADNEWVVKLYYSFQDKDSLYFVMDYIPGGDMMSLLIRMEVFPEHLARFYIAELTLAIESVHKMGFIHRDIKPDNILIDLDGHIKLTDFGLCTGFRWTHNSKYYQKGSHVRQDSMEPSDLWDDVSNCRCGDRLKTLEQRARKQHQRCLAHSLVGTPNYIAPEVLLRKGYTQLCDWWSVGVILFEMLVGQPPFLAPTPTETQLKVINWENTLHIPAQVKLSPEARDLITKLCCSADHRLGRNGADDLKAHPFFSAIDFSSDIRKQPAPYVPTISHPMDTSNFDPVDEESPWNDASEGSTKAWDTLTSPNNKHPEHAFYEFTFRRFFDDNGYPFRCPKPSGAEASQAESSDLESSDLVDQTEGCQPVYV

Sequence of Serine/threonine-protein kinase 10 (Homo sapiens) (O94804 whole entry, looked up): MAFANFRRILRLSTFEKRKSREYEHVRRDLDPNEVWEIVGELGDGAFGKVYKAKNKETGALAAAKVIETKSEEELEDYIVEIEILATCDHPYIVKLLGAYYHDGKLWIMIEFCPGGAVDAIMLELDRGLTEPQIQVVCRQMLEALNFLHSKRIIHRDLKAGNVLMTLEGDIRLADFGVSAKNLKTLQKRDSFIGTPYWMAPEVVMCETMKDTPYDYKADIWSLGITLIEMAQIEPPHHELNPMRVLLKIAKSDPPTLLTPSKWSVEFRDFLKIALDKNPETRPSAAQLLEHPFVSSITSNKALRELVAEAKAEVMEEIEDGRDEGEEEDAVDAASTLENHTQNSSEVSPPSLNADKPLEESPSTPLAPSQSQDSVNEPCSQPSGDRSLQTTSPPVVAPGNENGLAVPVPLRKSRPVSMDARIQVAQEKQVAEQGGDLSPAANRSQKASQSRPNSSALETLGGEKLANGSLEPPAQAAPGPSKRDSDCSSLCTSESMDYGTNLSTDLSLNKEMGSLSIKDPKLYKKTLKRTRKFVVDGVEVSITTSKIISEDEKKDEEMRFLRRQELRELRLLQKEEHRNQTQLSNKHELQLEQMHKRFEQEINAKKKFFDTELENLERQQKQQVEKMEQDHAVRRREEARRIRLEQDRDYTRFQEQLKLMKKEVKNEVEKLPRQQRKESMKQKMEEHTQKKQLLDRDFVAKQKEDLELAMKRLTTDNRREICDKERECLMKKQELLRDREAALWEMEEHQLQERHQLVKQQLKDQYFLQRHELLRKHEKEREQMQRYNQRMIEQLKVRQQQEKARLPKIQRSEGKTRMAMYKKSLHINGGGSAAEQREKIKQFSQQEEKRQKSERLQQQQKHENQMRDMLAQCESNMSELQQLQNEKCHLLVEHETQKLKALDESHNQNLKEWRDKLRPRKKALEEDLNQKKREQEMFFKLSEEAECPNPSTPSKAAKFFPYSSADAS
Sequence of Ribosomal protein S6 kinase alpha-4 (Homo sapiens) (O75676 whole entry, looked up): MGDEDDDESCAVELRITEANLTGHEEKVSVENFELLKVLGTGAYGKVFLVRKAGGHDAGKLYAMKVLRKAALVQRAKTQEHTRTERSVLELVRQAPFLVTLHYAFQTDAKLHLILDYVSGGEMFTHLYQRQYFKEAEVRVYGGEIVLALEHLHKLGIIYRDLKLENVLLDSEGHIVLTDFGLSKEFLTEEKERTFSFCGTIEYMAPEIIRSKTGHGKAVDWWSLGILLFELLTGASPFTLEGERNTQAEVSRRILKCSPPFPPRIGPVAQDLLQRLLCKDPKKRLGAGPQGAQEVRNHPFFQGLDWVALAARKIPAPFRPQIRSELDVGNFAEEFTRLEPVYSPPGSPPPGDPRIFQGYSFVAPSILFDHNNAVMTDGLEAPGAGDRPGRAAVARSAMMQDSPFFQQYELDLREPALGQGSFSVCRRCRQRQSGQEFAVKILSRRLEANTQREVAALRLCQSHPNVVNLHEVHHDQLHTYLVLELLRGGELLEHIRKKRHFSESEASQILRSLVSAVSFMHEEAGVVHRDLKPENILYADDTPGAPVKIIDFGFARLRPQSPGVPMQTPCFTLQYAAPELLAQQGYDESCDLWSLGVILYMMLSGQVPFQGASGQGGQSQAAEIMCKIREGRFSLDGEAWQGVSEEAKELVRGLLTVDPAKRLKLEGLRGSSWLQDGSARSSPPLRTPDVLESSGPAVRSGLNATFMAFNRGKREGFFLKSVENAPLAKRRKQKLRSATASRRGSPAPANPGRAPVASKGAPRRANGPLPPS
Sequence of Tyrosine-protein kinase receptor UFO (Homo sapiens) (P30530 whole entry): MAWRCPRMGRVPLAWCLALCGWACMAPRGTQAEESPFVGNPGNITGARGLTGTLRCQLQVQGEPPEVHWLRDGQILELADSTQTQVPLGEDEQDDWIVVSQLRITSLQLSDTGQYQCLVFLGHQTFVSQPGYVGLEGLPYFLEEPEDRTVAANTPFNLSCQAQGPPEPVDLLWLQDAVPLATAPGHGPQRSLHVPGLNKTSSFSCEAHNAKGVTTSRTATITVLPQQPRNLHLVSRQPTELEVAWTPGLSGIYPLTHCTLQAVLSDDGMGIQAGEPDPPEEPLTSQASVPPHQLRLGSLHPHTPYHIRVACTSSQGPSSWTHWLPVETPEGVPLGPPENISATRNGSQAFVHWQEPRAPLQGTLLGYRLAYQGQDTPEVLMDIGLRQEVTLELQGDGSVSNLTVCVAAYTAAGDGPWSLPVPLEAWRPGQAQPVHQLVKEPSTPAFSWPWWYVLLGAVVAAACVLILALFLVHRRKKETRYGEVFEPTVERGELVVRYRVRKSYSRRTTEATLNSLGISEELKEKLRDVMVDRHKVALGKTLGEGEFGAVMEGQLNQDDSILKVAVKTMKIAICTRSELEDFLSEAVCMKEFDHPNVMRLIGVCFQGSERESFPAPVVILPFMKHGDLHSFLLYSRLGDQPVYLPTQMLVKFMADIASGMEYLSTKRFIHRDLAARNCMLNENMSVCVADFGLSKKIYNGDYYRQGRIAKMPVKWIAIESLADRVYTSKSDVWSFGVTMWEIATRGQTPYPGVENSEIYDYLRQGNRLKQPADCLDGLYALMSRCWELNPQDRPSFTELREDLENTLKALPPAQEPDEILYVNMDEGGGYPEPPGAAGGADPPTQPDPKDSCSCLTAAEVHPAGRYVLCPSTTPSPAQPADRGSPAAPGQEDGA

How did the % of control [1] turn out when `COc1cc(Nc2nc(C)cc(-c3cnn4nc(OC)ccc34)n2)cc(C(F)(F)F)c1` was run?
Its % of control is 84%.

Which % of inhibition [2] does the source give for `CC[C@@H]1[C@H](F)C(=O)N[C@@H]1COc1nccc2cc(C(N)=O)c(OC)cc12` [ZIMLOVISERTIB] here?
Its % of inhibition is -9.2%.

`Cc1cc(F)c(C(=O)Nc2cccc(-c3nncn3C(C)C)n2)cc1-n1cnc(C2CC2)c1` was tested. Which % of control [3] did it give?
Its % of control is 100%.

How did the % of control [4] turn out when `CNC(=O)Nc1ccc(-c2nc(N3CC4CCC(C3)O4)c3cnn(C4CCC5(CC4)OCCO5)c3n2)cc1` was run?
The % of control was 88%.

What about the % of control [5] of the same molecule?
The % of control was 76%.
